Data as given in US7408079B2, “Imaging agents and methods of imaging NAALADase or PSMA” (The Johns Hopkins University, priority 2002, dated 2008).

Legend:
GCP II [1] = target: T1, GCP II (Mus musculus, UniProt O35409); assay: Binding specificity: blocking of ^11C-MCG kidney uptake by pretreatment with blocker; assay type: in vivo, mice; settings: for reduction in ^11C-MCG uptake: mouse kidney, pretreatment 5 minutes prior with unlabeled MCG (up to 1 mg/kg) or PMPA (1 mg/kg), sacrifice 30 minutes
T1 construct: from tissue; host or cells: kidney of live male CD-1 mice
Protocol: ANOVA, which was used in rodent radiotracer uptake studies, was performed with StatView SE Graphic software, version 1.03 (SAS Institute, Cary, N.C.). For the Students t test, p<0.01 was considered to indicate statistical significance.

GCP II [2] = assay: Baboon PET study of renal cortical uptake with tracer kinetic modeling; assay type: in vivo, baboon (Papio anubis)
Protocol: (§1) A dynamic PET study of the renal cortical uptake and clearance of ^11C-MCG was performed in an adult male baboon (Papio anubis; body weight, approximately 30 kg). Before each study, two intraveneous catheters and a single arterial catheter were placed for infusion of anesthesia, injection of radiotracer and sampling of arterial blood, respectively. The animal was initially anestitized intramuscurally with 8-10 mg/kg alfadolone and alfaxalone acetate (Saffan; Pitman-Moore, Middlesex, UK) and was intubated. Anesthesia was maintained throughout the study by a continuous intravenous infusion drip of 6-9 mg/kg/h of Saffan. The animal was secured to the PET bed using an individually fitted thermoplastic mask. Pulse, blood pressure, and oxygen saturation were monitored continuously during the studies. Blood oxygen saturation was always maintained above 85%. After the animal was positioned in the PET scanner, transmission scanning was performed with a 370 MBq (10 mCi) ^68Ga source to allow for attenuation correction. PET scanning was started immediately after intravenous injection of 370 MBq (10 mCi) of high-specific-acitivtiy ^11C-MCG (corresponding, at a maximum, to 0.02 μg/kg). Thirty-five simultaneous, contiguous (18 directed planes, 17 cross planes, z-axis 14.45 cm), sequential quantitative tomographic slices fo […] were obtained with a GE Advance PET tomograph (General Electric Medical Systems, Milwaukee, Wis.) in the high-resolution mode (4.25-5.00 mm ful width at half maximum within the slice) over a 90 minute period. The animal was positioned so that the renal cortex was in the filed of view. Approximately 30 arterial blood samples (for radioassay and protein binding) were obtained over 90 minutes. […]
A one-tissue, three parameter (K1=influx, k2 efflux, DV=distribution volume) model was applied to the TACs and to the metabolite-corrected renal uptake curves to describe tracer kinetics with DV (=K1/k2 in ml/ml) used as anindex of receptor density. The effect of blocking with PMPA was evaluated by changes in the Dva nd calculated as 100×(DVbaseline−DVblocker)/DVbaseline. […]

[3] = Metabolism of ^11C-MCG in baboon arterial plasma; assay type: in vivo, baboon (Papio anubis)
Protocol: as §1, with “PET scanning was started immediately after intravenous injection of 370 MBq (10 mCi) of high-specific-acitivtiy ^11C-MCG (corresponding, at a maximum, to 0.02 μg/kg).” left out, “period.” for “period. The animal was positioned so that the renal cortex was in the filed of view. Approximately 30 arterial blood samples (for radioassay and protein binding) were obtained over 90 minutes.”

[4] = Metabolism studies of ^11C-MCG in mice (blood and kidney, HPLC); settings: mice in vivo, n=2
Protocol: At different times after injection of ^11C-MCG into mice, blood and kidneys were collected to determine the rate of metabolism of the radiotracer. Heparinized blood (0.2-0.3 mL) was diluted to 0.9 mL with cold 0.9% saline and acidified to 0.5 N by the rapid addition of 0.1 mL of 5 N perchloric acid. Following 5 minutes on ice, the precipitate was removed by centrifugation to yield an acid-soluble supernatant that was analyzed by HPLC. Similarly, an acid extract of mouse kidney was obtained from an initial homogenate of two kidneys in 0.8 mL of cold water.
The acid extracts were loaded onto a 4.6×250 mm Prodigy ODS-3 column (Phenomenex) eluted with 10% acetonitrile in 50 mM sodium phosphate buffer pH 2.5 at a flow rate of 2 mL/min. Radioactivity was measured by a dual BGO flow detector and the chromatograph analyzed by Laura software (Bioscan, Washington, D.C.). ^11C-MCG eluted after 4.0 minutes with a minor, earlier eluting product at 2.5 minutes.

LogP (hydrophilicity) = assay type: physicochemical
[5] = in vivo
Protocol: Male CD-1 mice (Charles River, Wilmington, Mass.) weighing between 20 and 25 g were used and received an injection of 3.7 MBq (100 μCi) of ^11C-MCG through the tail vein. That amounted to, at a maximum, 0.27 μg/kg. For kinetic studies, mice were killed by cervical dislocation at 5, 15, 30, 60, and 120 min after injection fo the radiotracer in 200 μL of saline vehicle. The brains were removed and placed on ice, and the cerebellum, olfactory bulb, hypothalamus, hippocampus, striatum, parietal cortex, brainstem, and thalamus were harvested. Kidneys, blood, fat, muscle, small intestine, and prostate were also harvested. The tissue samples were weighted, and their radioactivity content was determined in an automated γ counter (1282 Compugamma CS: Pharmacia/LKB Nuclear, Gaithersburg Md.). Aliquots of the injected tracer were counted along with the samples and served as standards for the calculation of percentage injected dose per gram of tissue (% ID/g). To assess binding specificity, groups of three mice each were pretreated with the high affinity GCP II inhibitor PMPA at does of 1, 10 and 100 mg/kg in 200 μL of saline vehicle 5 minutes prior to ^11C-MCG injection. In an additional binding specificity study, animals were pretreated similarly with unlabeled MCG standard at doses of 5, 50, 100, 500, and 1000 μg/kg before ^11C-MCG injection

T1 sequence (O35409 whole entry): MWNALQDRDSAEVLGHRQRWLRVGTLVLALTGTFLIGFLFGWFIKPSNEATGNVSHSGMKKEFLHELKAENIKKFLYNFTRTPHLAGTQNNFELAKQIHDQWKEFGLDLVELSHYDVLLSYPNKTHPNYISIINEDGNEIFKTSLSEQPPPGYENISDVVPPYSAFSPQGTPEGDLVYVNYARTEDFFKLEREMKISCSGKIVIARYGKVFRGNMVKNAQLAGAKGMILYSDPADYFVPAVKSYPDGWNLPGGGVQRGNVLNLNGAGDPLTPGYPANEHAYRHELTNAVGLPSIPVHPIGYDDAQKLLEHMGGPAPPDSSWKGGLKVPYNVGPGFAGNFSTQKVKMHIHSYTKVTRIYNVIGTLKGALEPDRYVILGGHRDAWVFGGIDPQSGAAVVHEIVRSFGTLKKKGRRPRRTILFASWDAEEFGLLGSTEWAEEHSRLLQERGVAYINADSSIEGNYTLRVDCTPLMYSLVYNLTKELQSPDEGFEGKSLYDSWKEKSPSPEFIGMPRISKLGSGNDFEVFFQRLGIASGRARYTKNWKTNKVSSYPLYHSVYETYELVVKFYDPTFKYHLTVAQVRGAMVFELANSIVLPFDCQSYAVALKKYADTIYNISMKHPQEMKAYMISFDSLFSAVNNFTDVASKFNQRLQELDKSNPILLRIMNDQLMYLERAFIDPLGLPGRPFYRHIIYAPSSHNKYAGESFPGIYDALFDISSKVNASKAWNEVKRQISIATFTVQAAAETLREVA

| Compound | decreasing ^11C-MCG uptake in mouse kidney (FIG. 1) (GCP II [1]; increasing concentration of unlabeled MCG blocker, up to) | reduction in ^11C-MCG uptake (GCP II [1]) | reduction in the DV of ^11C-MCG (GCP II [2]; baboon renal cortex, pretreatment with 3 mg/kg PMPA) [%] | peak metabolism ([3]; baseline, 90 minutes after injection) [%] | peak metabolism ([3]; blocker (2 mg/kg PMPA) 10 minutes prior to tracer, 90 minutes post injection) [%] | metabolism in kidney ([4]; 30 minute time point) [%] | metabolism in plasma ([4]; 30 minute time point) [%] | metabolism in plasma ([4]; 60 minutes) | metabolism in kidney ([4]; at most over 5-60 minutes) [%] | logP (LogP (hydrophilicity)) | Kidney/blood ratio ([5]; male, CD-1, mouse, 30 min) | Prostate uptake ([5]; male, CD-1, mouse, 30 min) [% ID/G] | kidney/muscle ratio ([5]; male, CD-1, mouse, 30 min) | uptake in brainstem ([5]; male, CD-1, mouse, 30 min) [% ID/g] | uptake in cerebellum ([5]; male, CD-1, mouse, 30 min) [% ID/g] | uptake in cortex ([5]; male, CD-1, mouse, 30 min) [% ID/g] | uptake in hippocampus ([5]; male, CD-1, mouse, 30 min) [% ID/g] | Brain uptake ([5]; mouse) | DV (distribution volume) (GCP II [2]; baboon renal cortex, after pretreatment with 3 mg/kg PMPA) [mL/mL] | DV (distribution volume) (GCP II [2]; male, baboon (Papio anubis), in vivo) [mL/mL] |
| --- | --- | --- | --- | --- | --- | --- | --- | --- | --- | --- | --- | --- | --- | --- | --- | --- | --- | --- | --- | --- |
| CSCC(NC(=O)NC(CCC(=O)O)C(=O)O)C(=O)O (stereo not drawn) [MCG] | approximately seven fold | approximately sixfold |  |  |  |  |  |  |  |  |  |  |  |  |  |  |  |  |  |  |
| O=C(O)CCC(CP(=O)(O)O)C(=O)O (stereo not drawn) [PMPA, reference compound] |  | approximately sixfold | 37 |  |  |  |  |  |  |  |  |  |  |  |  |  |  |  |  |  |
| [11CH3]SC[C@H](NC(=O)N[C@@H](CCC(=O)O)C(=O)O)C(=O)O [^11C-MCG, 2-[3-(1-Carboxy-2-^11C-methylsulfanyl-ethyl)-ureido]-pentanedioic acid] |  |  |  | 9.0 | 4.0 | 2.0 | 3.5 | at most 9.2% | ≤ 10.4 | -0.235 | 30 | 1.55±1.01 | 73 | 0.12±0.03 | < 0.1 | < 0.1 | < 0.1 | low | 0.878 | 1.38 |
